The text below walks through data of ChEMBL document CHEMBL2390863, “Synthesis and evaluation of 4-substituted coumarins as novel acetylcholinesterase inhibitors” (Eur J Med Chem, 2013).

One test has as its target Cholinesterase (Equus caballus, UniProt P81908). Nature of the test: Inhibition of equine serum BChE using butylthiocholine iodide as substrate preincubated for 10 mins prior to substrate addition by Ellman's method. (Ellman's reagent forms a yellow product with free thiols.)
Another test concerns the target Acetylcholinesterase (Electrophorus electricus, UniProt O42275). Briefly: Inhibition of electric eel AChE using acetylthiocholine iodide as substrate preincubated for 10 mins prior to substrate addition by Ellman's method.
A short description of test [1]: Selectivity ratio of IC50 for equine serum BChE to IC50 for electric eel AChE.
Test [2] is described as follows: Antioxidant activity assessed as Fe2+ formation by FRAP assay. It is filed as functional.

As usually defined, the IC50 is the concentration at which inhibition is half-maximal. A high value points to weaker potency.

Sequence of Cholinesterase (P81908 whole entry): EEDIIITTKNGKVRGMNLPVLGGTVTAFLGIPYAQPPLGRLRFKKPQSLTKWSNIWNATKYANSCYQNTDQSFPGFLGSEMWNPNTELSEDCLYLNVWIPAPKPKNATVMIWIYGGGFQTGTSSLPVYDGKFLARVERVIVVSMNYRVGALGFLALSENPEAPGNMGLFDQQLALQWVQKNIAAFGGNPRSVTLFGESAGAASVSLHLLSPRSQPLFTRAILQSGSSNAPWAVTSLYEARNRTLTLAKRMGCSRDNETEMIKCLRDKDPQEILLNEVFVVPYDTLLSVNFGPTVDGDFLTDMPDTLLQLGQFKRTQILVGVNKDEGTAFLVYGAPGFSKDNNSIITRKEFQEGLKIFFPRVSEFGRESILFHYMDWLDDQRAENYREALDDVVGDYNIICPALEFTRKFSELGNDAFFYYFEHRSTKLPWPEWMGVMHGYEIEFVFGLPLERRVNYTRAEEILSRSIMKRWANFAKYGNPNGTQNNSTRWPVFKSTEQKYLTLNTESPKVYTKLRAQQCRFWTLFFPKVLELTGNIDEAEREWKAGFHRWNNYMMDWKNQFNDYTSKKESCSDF
Sequence of Acetylcholinesterase (O42275 whole entry): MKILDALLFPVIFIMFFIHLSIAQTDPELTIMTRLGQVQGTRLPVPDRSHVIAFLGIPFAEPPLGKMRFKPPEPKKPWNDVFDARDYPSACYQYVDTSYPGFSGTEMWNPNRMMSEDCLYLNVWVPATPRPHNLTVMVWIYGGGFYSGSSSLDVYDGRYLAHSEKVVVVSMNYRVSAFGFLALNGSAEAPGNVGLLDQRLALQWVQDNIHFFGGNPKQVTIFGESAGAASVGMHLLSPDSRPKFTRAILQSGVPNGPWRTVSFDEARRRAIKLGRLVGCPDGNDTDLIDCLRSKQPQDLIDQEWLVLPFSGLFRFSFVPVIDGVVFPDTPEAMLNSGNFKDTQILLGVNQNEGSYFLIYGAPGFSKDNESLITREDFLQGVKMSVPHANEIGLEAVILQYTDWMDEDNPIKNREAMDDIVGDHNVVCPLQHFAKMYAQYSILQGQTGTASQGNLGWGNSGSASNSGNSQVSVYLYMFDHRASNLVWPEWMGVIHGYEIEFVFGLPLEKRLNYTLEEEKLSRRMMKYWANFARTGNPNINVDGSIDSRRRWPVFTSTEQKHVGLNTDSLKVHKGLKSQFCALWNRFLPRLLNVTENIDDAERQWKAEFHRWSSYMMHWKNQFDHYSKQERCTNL

Turning to `O=C(CCCOc1cc(=O)oc2ccccc12)N1CCC(O)(c2ccc(Cl)cc2)CC1`, the IC50 on Cholinesterase and on Acetylcholinesterase was > 100 µM in each case.
Regarding `COc1ccc(CCNC(=O)CCCOc2cc(=O)oc3ccccc23)cc1OC`, the 50% inhibitory concentration (IC50) against Cholinesterase and at Acetylcholinesterase was > 100 µM throughout.
Regarding `O=C(COc1cc(=O)oc2ccccc12)N1CCC(O)(c2ccc(Cl)cc2)CC1`, the IC50 at Cholinesterase and at Acetylcholinesterase was > 100 µM each time.
For the compound `O=C(CCCOc1cc(=O)oc2ccccc12)N1CCC(O)(c2ccc(Br)cc2)CC1`, the IC50 against Cholinesterase and on Acetylcholinesterase was > 100 µM each time.
In the case of `O=C(COc1cc(=O)oc2ccccc12)N1CCN(c2ccc(F)cc2)CC1`, the IC50 was 76 µM at Cholinesterase and 2.1 µM against Acetylcholinesterase. The Ratio IC50 in test [1] was 34.
On to `O=C(COc1cc(=O)oc2ccccc12)N1CCN(c2ccccc2)CC1`, for which the concentration for half-maximal inhibition (IC50) is > 100 µM on Cholinesterase and 2.9 µM at Acetylcholinesterase. The Ratio IC50 in test [1] was 34.
Consider `O=C(CCCOc1cc(=O)oc2ccccc12)N1CCN(c2ccc(Cl)c(Cl)c2)CC1`, for which the IC50 on Cholinesterase and on Acetylcholinesterase was > 100 µM in each case.
With `O=C1O[C@H]([C@@H](O)CO)C(O)=C1O`, the Activity in test [2] was 2250 mmol/g.
Regarding `O=C(CCCOc1cc(=O)oc2ccccc12)NC1CCN(Cc2ccccc2)CC1`, the IC50 came to 41 µM at Cholinesterase and 2.37 µM against Acetylcholinesterase.
As to `O=C(COc1cc(=O)oc2ccccc12)N1CCC(O)(c2ccc(Br)cc2)CC1`, the IC50 on Cholinesterase and on Acetylcholinesterase was > 100 µM throughout.
For `O=C(COc1cc(=O)oc2ccccc12)N1CCN(c2ccc(Cl)c(Cl)c2)CC1`, the results for the IC50 against Cholinesterase and against Acetylcholinesterase were 89 µM and 2.3 µM, respectively. Further, in test [1], the Ratio IC50 came to 34.
For `O=C(CCCOc1cc(=O)oc2ccccc12)N1CCN(c2ccc(F)cc2)CC1`, the IC50 on Cholinesterase and against Acetylcholinesterase was > 100 µM in each case.
Regarding `O=C(COc1cc(=O)oc2ccccc12)N1CCC(Cc2ccccc2)CC1`, the IC50 against Cholinesterase came out at 65 µM; against Acetylcholinesterase, 3.4 µM.
For `O=C(CCCOc1cc(=O)oc2ccccc12)N1CCN(c2ccccc2O)CC1`, the concentration for half-maximal inhibition (IC50) against Cholinesterase and against Acetylcholinesterase was > 100 µM each time. Also, in test [2], the Activity turned out to be 770 mmol/g.
As to `O=C(CCCOc1cc(=O)oc2ccccc12)N1CCN(c2ccccc2)CC1`, the IC50 against Cholinesterase and on Acetylcholinesterase was > 100 µM each time.
Regarding `O=C(CCCOc1cc(=O)oc2ccccc12)N1CCN(c2ccccc2F)CC1`, the IC50 at Cholinesterase and at Acetylcholinesterase was > 100 µM each time.
With `O=C(COc1cc(=O)oc2ccccc12)N1CCN(c2ccccc2O)CC1`, the values for the IC50 against Cholinesterase and against Acetylcholinesterase were > 100 µM and 21.2 µM, respectively. In addition, in test [2], the Activity is 840 mmol/g.
Turning to `O=C(COc1cc(=O)oc2ccccc12)NC1CCN(Cc2ccccc2)CC1`, the IC50 was found to be 45 µM against Cholinesterase and 1.2 µM against Acetylcholinesterase. Further, the Ratio IC50 in test [1] turned out to be 37.
Consider `O=C(COc1cc(=O)oc2ccccc12)N1CCN(c2ccccc2F)CC1`, for which the IC50 is > 100 µM against Cholinesterase and 12.1 µM against Acetylcholinesterase.
Take `O=C(CCCOc1cc(=O)oc2ccccc12)N1CCC(Cc2ccccc2)CC1`: the results for the concentration for half-maximal inhibition (IC50) against Cholinesterase and at Acetylcholinesterase were 76 µM and 8 µM, respectively.
